Holding throughout (assay type): cell-based
One assay relates to E. coli ΔtolC. Kind of assay: microbe, parasite or virus in culture. The following applies: Escherichia coli, 16 h. The method, then: (§1) Cystobactamid derivatives synthesized were tested against relevant Gram negative and positive bacteria of clinical interest. Experimental procedures used for the biological characterization of the compounds are the same as previously described in WO 2016/082934.
(§2) Bacterial strains used in susceptibility assays (minimum inhibitory concentration, MIC) were either part of our internal strain collection or purchased from the German Collection of Microorganisms and Cell Cultures (Deutsche Sammlung von Mikroorganismen und Zellkulturen, DSMZ) and the American Type Culture Collection (ATCC). The susceptible E. coli strain (WT) and fluoroquinolone-resistant mutants E. coli WT-3 and WT-III were kindly provided by Prof Dr. P. Heisig, Pharmaceutical Biology and Microbiology, University of Hamburg, Germany. The efflux-deficient strain P. aeruginosa ΔmexAB was kindly provided by Prof Dr. S. Häußler, Institute for Molecular Bacteriology, TWINCORE, Hannover, Germany. All compounds were prepared as DMSO stocks and MIC values were determined in standard microbroth dilution assays in 96-well MTPs as described in Baumann et al., Angew Chem Int Ed Engl. 2014; 53(52):14605-9. In brief, overnight cultures of bacteria were diluted in either tryptic soy broth (TSB: 1.7% peptone casein, 0.3% peptone soymeal, 0.25% glucose, 0.5% NaCl, 0.25% K2HPO4; pH 7.3; S. pneumoniae and E. faecalis) or cation-adjusted Müller-Hinton Broth (BBL™, BD; all other bacteria) and adjusted to 10^4-10^6 cfu/mL. Bacteria were grown in the presence of the derivatives in serial dilution for approx. 16 h at 30-37° C. MIC values were determined and were defined as the antibiotic concentration at which no visual growth of bacteria was observed.

Another assay relates to P. aeruginosa ΔmexAB. Kind of assay: microbe, parasite or virus in culture. The conditions noted are these: Pseudomonas aeruginosa, 16 h. The method, then:
as §1, §2

Another assay has as its system E. coli WT DSM-1116. Nature of the assay: MIC, microbroth dilution susceptibility assay. The conditions noted are these: Escherichia coli, read-out: MIC E. coli WT DSM-1116. The method, then: as §1, §2
For orientation: In broth dilution the organism is exposed to a series of concentrations in liquid medium.

The test system of a further assay is P. aeruginosa WT PA14. Kind of assay: MIC, microbroth dilution susceptibility assay. The following applies: Pseudomonas aeruginosa. The method, then: as §1, §2
A further assay relates to S. aureus Newman. Nature of the assay: MIC, microbroth dilution susceptibility assay. The conditions noted are these: Staphylococcus aureus, NEWMAN, read-out: MIC S. aureus Newman. The method, then: as §1, §2
The mark [1] stands for this setting: read-out: MIC E. coli ΔtolC, small panel, Tables 1a/1b, no visual growth after approx. 16 h.
[2] abbreviates: read-out: MIC P. aeruginosa ΔmexAB, efflux-deficient strain, small panel, Tables 1a/1b.
[3] abbreviates: DSM1116, small panel, Tables 1a/1b, no visual growth after approx. 16 h.
Where [4] appears, read: PA14, small panel, Tables 1a/1b, read-out: MIC P. aeruginosa WT PA14.

Converted amounts (≈) assume the structure as drawn. Where two headings read alike, the source gives them in different places.

On to `CC(C)COc1c(NC(=O)c2ccc(NC(=O)[C@H](CC(N)=O)NC(=O)c3ccc(NC(=O)c4ccc([N+](=O)[O-])cc4)cc3)cc2)ccc(C(=O)Nc2ccc(C(=O)O)cc2)c1O` [Compound 65, (S)-4-(4-(4-(4-amino-2-(4-(4-nitrobenzamido)benzamido)-4-oxobutanamido)benzamido)-2-hydroxy-3-isobutoxybenzamido)benzoic acid], for which the MIC was > 64 µg/mL with E. coli ΔtolC (setting [1]); > 64 µg/mL with P. aeruginosa ΔmexAB (setting [2]); > 64 µg/mL with E. coli WT DSM-1116 (setting [3]); > 64 µg/mL in the assay with P. aeruginosa WT PA14 (setting [4]); 1 µg/mL (≈ 1.18 µM) in the assay on S. aureus Newman (small panel, Tables 1a/1b).
With `CC(C)Oc1c(NC(=O)c2ccc(NC(=O)[C@H](CC(N)=O)NC(=O)c3ccc(NC(=O)C(C)Oc4ccccc4)cc3)cc2)ccc(C(=O)Nc2ccc(C(=O)O)cc2)c1O` (stereo partly drawn) [Compound 54, 4-(4-(4-((2S)-4-amino-4-oxo-2-(4-(2-phenoxypropanamido)benzamido)butanamido)benzamido)-2-hydroxy-3-isopropoxybenzamido)benzoic acid], the MIC in the assay with E. coli ΔtolC (setting [1]) was 4 µg/mL (≈ 4.81 µM); with P. aeruginosa ΔmexAB (setting [2]) it was > 64 µg/mL; with E. coli WT DSM-1116 (setting [3]), > 64 µg/mL; with P. aeruginosa WT PA14 (setting [4]), > 64 µg/mL; in the assay with S. aureus Newman (small panel, Tables 1a/1b) it was > 64 µg/mL.
As for `CC(C)Oc1c(NC(=O)c2ccc(NC(=O)[C@H](CC(N)=O)NC(=O)c3ccc(NC(=O)c4ccc(S(C)(=O)=O)cc4)cc3)cc2)ccc(C(=O)Nc2ccc(C(=O)O)cc2)c1O` [Compound 56, (S)-4-(4-(4-(4-amino-2-(4-(4-(methylsulfonyl)benzamido)benzamido)-4-oxobutanamido)benzamido)-2-hydroxy-3-isopropoxybenzamido)benzoic acid], the MIC is < 0.03 µg/mL with E. coli ΔtolC (setting [1]); > 64 µg/mL in the assay on P. aeruginosa ΔmexAB (setting [2]); 2 µg/mL (≈ 2.31 µM) with E. coli WT DSM-1116 (setting [3]); > 64 µg/mL in the assay on P. aeruginosa WT PA14 (setting [4]); > 64 µg/mL with S. aureus Newman (small panel, Tables 1a/1b).
As for `CC(C)Oc1c(NC(=O)c2ccc(NC(=O)[C@H](CC(N)=O)NC(=O)c3ccc(NC(=O)c4ccc(C#N)cc4)cc3)cc2)ccc(C(=O)NC2CCNCC2)c1O` [Compound 91, (S)-2-(4-(4-cyanobenzamido)benzamido)-N1-(4-((3-hydroxy-2-isopropoxy-4-(piperidin-4-ylcarbamoyl)phenyl)carbamoyl)phenyl)succinamide], the MIC in the assay with E. coli ΔtolC (setting [1]) was > 64 µg/mL; in the assay on P. aeruginosa ΔmexAB (setting [2]), > 64 µg/mL; with E. coli WT DSM-1116 (setting [3]), > 64 µg/mL; in the assay on P. aeruginosa WT PA14 (setting [4]), > 64 µg/mL; in the assay with S. aureus Newman (small panel, Tables 1a/1b) it was > 64 µg/mL.
Consider `CC(C)Oc1c(NC(=O)c2ccc(NC(=O)[C@H](CC(N)=O)NC(=O)c3ccc(NC(=O)c4ccccc4[N+](=O)[O-])cc3)cc2)ccc(C(=O)Nc2ccc(C(=O)O)cc2)c1O` [Compound 43, (S)-4-(4-(4-(4-amino-2-(4-(2-nitrobenzamido)benzamido)-4-oxobutanamido)benzamido)-2-hydroxy-3-isopropoxybenzamido)benzoic acid], for which the MIC is 2 µg/mL (≈ 2.4 µM) with E. coli ΔtolC (setting [1]); > 64 µg/mL in the assay with P. aeruginosa ΔmexAB (setting [2]); > 64 µg/mL in the assay with E. coli WT DSM-1116 (setting [3]); > 64 µg/mL with P. aeruginosa WT PA14 (setting [4]); > 64 µg/mL with S. aureus Newman (small panel, Tables 1a/1b).
Take `CC(C)Oc1c(NC(=O)c2ccc(NC(=O)[C@H](CC(N)=O)NC(=O)c3ccc(NC(=O)c4ccccc4)cc3)cc2)ccc(C(=O)Nc2ccc(C(=O)O)cc2)c1O` [Compound 38, (S)-4-(4-(4-(4-amino-2-(4-benzamidobenzamido)-4-oxobutanamido)benzamido)-2-hydroxy-3-isopropoxybenzamido)benzoic acid]: the MIC with E. coli ΔtolC (read-out: MIC E. coli ΔtolC) is 0.5 µg/mL (≈ 0.635 µM); in the assay on P. aeruginosa ΔmexAB (read-out: MIC P. aeruginosa ΔmexAB) it was 2 µg/mL (≈ 2.54 µM); in the assay on E. coli WT DSM-1116 (DSM1116, 16 h), > 64 µg/mL; in the assay on P. aeruginosa WT PA14 (PA14, read-out: MIC P. aeruginosa WT PA14), > 64 µg/mL; in the assay on S. aureus Newman, > 64 µg/mL.
On to `CC(C)Oc1c(NC(=O)c2ccc(NC(=O)[C@H](CC(N)=O)NC(=O)c3ccc(NC(=O)c4ccc([N+](=O)[O-])c(OC(C)C)c4O)cc3)cc2)ccc(C(=O)Nc2ccc(C(=O)O)cc2)c1O` [Compound 48, (S)-4-(4-(4-(4-amino-2-(4-(2-hydroxy-3-isopropoxy-4-nitrobenzamido)benzamido)-4-oxobutanamido)benzamido)-2-hydroxy-3-isopropoxybenzamido)benzoic acid], for which the MIC in the assay with E. coli ΔtolC (setting [1]) is > 64 µg/mL; with P. aeruginosa ΔmexAB (setting [2]), > 64 µg/mL; in the assay on E. coli WT DSM-1116 (setting [3]), > 64 µg/mL; in the assay on P. aeruginosa WT PA14 (setting [4]) it was > 64 µg/mL; with S. aureus Newman (small panel, Tables 1a/1b), > 64 µg/mL.
In the case of `CC(C)Oc1c(NC(=O)c2ccc(NC(=O)[C@H](CC(N)=O)NC(=O)c3ccc(NC(=O)c4ccc(C#N)cc4)cc3)cc2)ccc(C(=O)Nc2ccc(S(=O)(=O)O)cc2)c1O` [Compound 92, (S)-4-(4-(4-(4-amino-2-(4-(4-cyanobenzamido)benzamido)-4-oxobutanamido)benzamido)-2-hydroxy-3-isopropoxybenzamido)benzenesulfonic acid], the MIC in the assay with E. coli ΔtolC (setting [1]) is 0.25 µg/mL (≈ 0.295 µM); with P. aeruginosa ΔmexAB (setting [2]) it was > 64 µg/mL; in the assay on E. coli WT DSM-1116 (setting [3]), > 64 µg/mL; in the assay with P. aeruginosa WT PA14 (setting [4]), > 64 µg/mL; in the assay on S. aureus Newman (small panel, Tables 1a/1b), > 64 µg/mL.
For `CC(C)Oc1c(NC(=O)c2ccc(NC(=O)[C@H](CC(N)=O)NC(=O)c3ccc(NC(=O)c4cccc(N)c4)cc3)cc2)ccc(C(=O)Nc2ccc(C(=O)O)cc2)c1O` [Compound 42, (S)-4-(4-(4-(4-amino-2-(4-(3-aminobenzamido)benzamido)-4-oxobutanamido)benzamido)-2-hydroxy-3-isopropoxybenzamido)benzoic acid], the MIC in the assay on E. coli ΔtolC (setting [1]) is 2 µg/mL (≈ 2.49 µM); in the assay with P. aeruginosa ΔmexAB (setting [2]), 4 µg/mL (≈ 4.99 µM); in the assay on E. coli WT DSM-1116 (setting [3]), 32 µg/mL (≈ 39.9 µM); in the assay with P. aeruginosa WT PA14 (setting [4]), > 64 µg/mL; in the assay on S. aureus Newman (small panel, Tables 1a/1b) it was > 64 µg/mL.
On to `CC(C)COc1c(NC(=O)c2ccc(NC(=O)[C@H](CC(N)=O)NC(=O)c3ccc(NC(=O)c4ccc(C#N)cc4)cc3)cc2)ccc(C(=O)Nc2ccc(C(=O)O)cc2)c1O` [Compound 126, (S)-4-(4-(4-(4-amino-2-(4-(4-cyanobenzamido)benzamido)-4-oxobutanamido)benzamido)-2-hydroxy-3-isobutoxybenzamido)benzoic acid], for which the MIC with E. coli ΔtolC (setting [1]) is < 0.03 µg/mL; with P. aeruginosa ΔmexAB (setting [2]) it was > 64 µg/mL; in the assay on E. coli WT DSM-1116 (setting [3]), 0.25 µg/mL (≈ 0.303 µM); in the assay on P. aeruginosa WT PA14 (setting [4]), > 64 µg/mL; with S. aureus Newman (small panel, Tables 1a/1b), 0.25 µg/mL (≈ 0.303 µM).
With `CC(C)Oc1c(NC(=O)c2ccc(NC(=O)[C@H](CC(N)=O)NC(=O)c3ccc(NC(=O)c4ccc(C(F)(F)F)cc4)cc3)cc2)ccc(C(=O)Nc2ccc(C(=O)O)cc2)c1O` [Compound 45, (S)-4-(4-(4-(4-amino-4-oxo-2-(4-(4-(trifluoromethyl)benzamido)benzamido)butanamido)benzamido)-2-hydroxy-3-isopropoxybenzamido)benzoic acid], the MIC was ≤ 0.03 µg/mL in the assay on E. coli ΔtolC (setting [1]); > 64 µg/mL in the assay on P. aeruginosa ΔmexAB (setting [2]); 0.5 µg/mL (≈ 0.585 µM) with E. coli WT DSM-1116 (setting [3]); > 64 µg/mL in the assay with P. aeruginosa WT PA14 (setting [4]); 16 to 32 µg/mL (≈ 18.7 to 37.4 µM) with S. aureus Newman (small panel, Tables 1a/1b).
As to `Cc1cc(C(=O)Nc2ccc(C(=O)N[C@@H](CC(N)=O)C(=O)Nc3ccc(C(=O)Nc4ccc(C(=O)Nc5ccc(C(=O)O)cc5)c(O)c4OC(C)C)cc3)cc2)ccc1C#N` [Compound 52, (S)-4-(4-(4-(4-amino-2-(4-(4-cyano-3-methylbenzamido)benzamido)-4-oxobutanamido)benzamido)-2-hydroxy-3-isopropoxybenzamido)benzoic acid], the MIC with E. coli ΔtolC (setting [1]) turned out to be 0.03 µg/mL (≈ 0.0363 µM); with P. aeruginosa ΔmexAB (setting [2]) it was 0.5 µg/mL (≈ 0.605 µM); in the assay on E. coli WT DSM-1116 (setting [3]), 0.5 µg/mL (≈ 0.605 µM); in the assay with P. aeruginosa WT PA14 (setting [4]), 4 µg/mL (≈ 4.84 µM); in the assay with S. aureus Newman (small panel, Tables 1a/1b), 2 µg/mL (≈ 2.42 µM).
As for `CC(C)Oc1c(NC(=O)c2ccc(NC(=O)[C@H](CC(N)=O)NC(=O)c3ccc(NC(=O)c4ccc(C#N)cc4)cc3)cc2)ccc(C(=O)Nc2ccncc2)c1O` [Compound 94, (S)-2-(4-(4-cyanobenzamido)benzamido)-N1-(4-((3-hydroxy-2-isopropoxy-4-(pyridin-4-ylcarbamoyl)phenyl)carbamoyl)phenyl)succinamide], the MIC in the assay on E. coli ΔtolC (setting [1]) is 0.03 µg/mL (≈ 0.039 µM); in the assay on P. aeruginosa ΔmexAB (setting [2]) it was > 64 µg/mL; in the assay with E. coli WT DSM-1116 (setting [3]), > 64 µg/mL; with P. aeruginosa WT PA14 (setting [4]), > 64 µg/mL; with S. aureus Newman (small panel, Tables 1a/1b), > 64 µg/mL.
In the case of `CC(C)Oc1c(NC(=O)c2ccc(NC(=O)[C@H](CC(N)=O)NC(=O)c3ccc(NC(=O)c4ccc(C#N)c(F)c4)cc3)cc2)ccc(C(=O)Nc2ccc(C(=O)O)cc2)c1O` [Compound 51, (S)-4-(4-(4-(4-amino-2-(4-(4-cyano-3-fluorobenzamido)benzamido)-4-oxobutanamido)benzamido)-2-hydroxy-3-isopropoxybenzamido)benzoic acid], the MIC in the assay with E. coli ΔtolC (setting [1]) was ≤ 0.03 µg/mL; with P. aeruginosa ΔmexAB (setting [2]), 0.5 µg/mL (≈ 0.603 µM); with E. coli WT DSM-1116 (setting [3]), 0.25 µg/mL (≈ 0.301 µM); with P. aeruginosa WT PA14 (setting [4]) it was 8 µg/mL (≈ 9.64 µM); in the assay on S. aureus Newman (small panel, Tables 1a/1b), 2 µg/mL (≈ 2.41 µM).
